{"source": "patent US11370775B2", "about": "“Substituted benzimidazole derivatives as D-amino acid oxidase (DAAO) inhibitors” (NATIONAL TAIWAN UNIVERSITY, priority 2016, dated 2022)", "format_in_all_cases": "in vivo", "key": {"[1]": {"system": "MK-801-induced hyperlocomotion in C57BL/6 mice", "assay": "Open field, MK-801-induced hyperlocomotion", "source_text": "(§1) The NMDA-receptor antagonist MK-801-induced negative or cognitive deficits in C57BL/6 mice were in a well-established drug-induced schizophrenia mouse model and as a useful pharmacological animal model to identify if the RS-D7, its analog and its prodrug improve the symptoms through the NMDA receptor.\n(§2) All wild-type (WT) mice used in this study were backcrossed onto a C57BL/6J background from the Laboratory Animal Center of National Taiwan University Hospital, and all behavioral examinations were conducted in WT mice. For acclimatizing to laboratory conditions, the mice were allowed free access to food and water and were housed in groups with a 12 hours light-dark cycle in a temperature and humidity controlled room of the Psychology Department, National Taiwan University. All animals within the age of 3 months were housed individually one week before experiment testing with food and water available ad libitum. In the beginning of the experiments, the mice were handled and weighted daily at least 1 week before the behavioral experiments. The entire animal procedures were performed according to protocols approved by the Animal Care and Use Committee established by the National Taiwan University.\n(§3) MK-801 was dissolved in saline and administered at a volume of 0.01 ml/g body weight. RS-D7, Drug 12083 (analog of RS-D7) and was freshly dissolved in 1% CMC to the concentration of 2 mg/ml before usage. Prodrug 28095 was freshly dissolved in NMP:HP-beta-CD:H2O (5:25:70) to the concentration of 2 mg/ml before usage. All animals were given vehicle (saline) or MK-801 (0.2 mg/kg, i.p.) 25 minutes before the behavioral experiments. Both vehicle (1% CMC or NMP:HP-beta-CD:H2O) and experimental groups (RS-D7, Drug 12083 or Prodrug 28095) were treated after 5 minutes MK-801 administration with the appropriate dose via P.O. injections (at a volume of 0.01 ml/g body weight).\n(§4) For investigating the treatment effect of RS-D7 for negative and cognitive symptoms, a series of three behavioral tests (run from the first to the third week), which included open field, sucrose preference test and prepulse inhibition were performed in sequence with a 1-week interval between tests.\nTo assess spontaneous locomotor activity, each subject was placed into the center of an open-field apparatus (25.40*25.40*40.64 cm^3, Coulbourn Instruments, Whitehall, Pa., USA) under dim lighting condition (60 lx). Motor activity parameters (including total travel distance and travel distance per 10 minutes) were monitored and recorded over a 60 minutes period by using Smart video tracking software (Panlab, Harvard apparatus, US). For comparing the treatment effects of different treatment groups, the percentage change of rescue effect on MK-801-induced hyperlocomotion was calculated using the following formula: %=(rescue effect of drug−MK-801 effect)×100%/MK-801 effect."}, "[2]": {"system": "MK-801-induced anhedonia in C57BL/6 mice", "assay": "Sucrose preference test, MK-801-induced anhedonia", "source_text": "as §1, §2, §3, §4\nTo assess the anhedonia, one of the negative symptoms of schizophrenia, all mice underwent 4-day testing. In the beginning of the sucrose preference, all mice were deprived of water for 23 hours in all the experiment from one day before the first day. On the first day, each mouse was given free access to 2 identical bottles with water for 1 hour. Then, the 2 identical bottles were replaced that one filled with 1% (wt/vol) sucrose solution and the other with water on the second day. On the third and fourth day, each mouse was received MK-801 and RS-D7 treatment before the experiment, and also free accessed to bottles for 1 hour. After the experiment, the 2 bottles were weighted to measure the 1-hour consumption of sucrose solution and water. The sucrose preference percentage (SPP) was calculated using the following formula: % SPP=sucrose solution consumption (g)×100%/[water consumption (g)+sucrose solution consumption (g)]."}, "[3]": {"system": "MK-801-induced PPI deficit in C57BL/6 mice", "assay": "Prepulse inhibition, MK-801-induced PPI deficit", "settings": "MK-801 0.2 mg/kg i.p.", "source_text": "as §1, §2, §3, §4\nTo assess the sensorimotor gating function, each mouse was tested with the SR-LAB startle apparatus (San Diego Instruments, San Diego, Calif., USA). The background noise was 72 dB during testing. Each session was initiated with a 5 minutes acclimatization period followed by 64 trials, consisting of pulse-alone (P-alone) trials, prepulse pulse (pp+P) trials, and no stimulation (nostim) trials. A P-alone trial was a 120 dB white noise burst of 40 msec. In the pp+P trials, the 120 dB pulse was preceded (by 100 msec) by a 20 msec of white noise prepulse burst of 78 dB (PP6), 82 dB (PP10), or 90 dB (PP18). The nostim trials consisted of background noise only. The session began and ended with a block of six presentations of the P-alone trial. Between these two blocks, the rest of the 52 trials were performed pseudorandomly and separated by intertrial intervals of 15 sec on average (varying between 10 and 20 sec). PPI was calculated as a percentage of the startle response using the formula: % PPI=100× [(P-alone score)-(pp+P score)]/(pulse-alone score), where the pulse-alone score was the average of the pulse-alone values from the in-between block of 52 trials."}}, "data": [{"smiles": "COc1c(C)cnc(C[S+]([O-])c2nc3cc(OC(=O)CC(C)CC(C)(C)C)ccc3[nH]2)c1C", "note": "(stereo not drawn) [compound 28095, 2-(((4-methoxy-3,5-dimethylpyridin-2-yl)methyl)sulfinyl)-1H-benzo[d]imidazol-5-yl 3,5,5-trimethylhexanoate]", "values": [{"measurement": "Effect on MK-801 induced hyperlocomotion (open field)", "setting": "[1]; 100 mg/kg P.O., MK-801 0.2 mg/kg i.p., mice", "value": "alleviated MK-801 induced hyperlocomotion"}, {"measurement": "Effect on MK-801-induced hyperlocomotion (FIG. 1)", "setting": "[1]; different dosages, compared to the MK-801 group", "value": "can rescue the MK-801-induced hyperlocomotion"}, {"measurement": "Effect on MK-801 induced anhedonia (sucrose preference)", "setting": "[2]; 200 mg/kg P.O., MK-801 0.2 mg/kg i.p., mice", "value": "normalized MK-801 induced anhedonia"}, {"measurement": "Effect on anhedonia after acute MK-801 injection (FIG. 2)", "setting": "[2]; different dosages", "value": "rescue the anhedonia after acute MK-801 injection"}, {"measurement": "Effect on MK-801 induced PPI deficit", "setting": "[3]; 100 mg/kg P.O.", "value": "significantly alleviated MK-801 induced PPI deficit"}, {"measurement": "Effect on MK-801 induced PPI deficit", "setting": "[3]; 200 mg/kg P.O.", "value": "significantly alleviated MK-801 induced PPI deficit"}]}]}
